This passage reports Ki results from US10988459B2 (priority 2015, dated 2021).

SMILES strings stand for the structures.

In this assay the target is human RIP1 kinase domain (2-375) (Homo sapiens (Human), UniProt Q13546). Put plainly: biochemical. It counts as biochemical. To be noted: tight-binding apparent inhibition constant; human RIP1 kinase domain (2-375) 50 nM, 50 uM ATP, 2 hours; read-out: Ki. The method, then:
Example 794: RIP1 Kinase Inhibition Assays (Biochemical Assay)
The compounds of the present invention were tested for their capacity to inhibit RIP1K activity as described below.
The ability of the receptor interacting protein kinase (RIPK1) to catalyze the hydrolysis of adenosine-5′-triphosphate (ATP) is monitored using the Transcreener ADP (adenosine-5′-diphosphate) assay (BellBrook Labs). Purified human RIP1 kinase domain (2-375) (50 nM) derived from a baculovirus-infected insect cell expression system is incubated with test compounds for 2 hours in 50 mM Hepes buffer (pH 7.5) containing 30 mM MgCl2, 1 mM dithiothreitol, 50 uM ATP, 0.002% Brij-35, and 0.5% dimethyl sulfoxide (DMSO). […] The tracer bound to the antibody is displaced by the ADP generated during the RIP1K reaction, which causes a decrease in fluorescence polarization that is measured by laser excitation at 633 nm with a FP microplate reader M1000. Fractional activity was plotted against test article concentration. Using Genedata Screener software (Genedata; Basel, Switzerland), the data were fit to the tight-binding apparent inhibition constant (Ki^app) Morrison equation [Williams, J. W. and Morrison, J. F. (1979) The kinetics of reversible tight-binding inhibition. Methods Enzymol 63: 437-67]. The following equation was used to calculate fractional activity and Ki^app:
[formula] where [E]T and [I]T are the total concentrations of active enzyme and test article, respectively.
“Method” in the first column of each table refers to the synthetic method(s) used to prepare each compound as shown in the Examples above. In certain examples, chiral column retention times (min) are provided for certain stereoisomers.

Chain of human RIP1 kinase domain (2-375) (Q13546 2-375): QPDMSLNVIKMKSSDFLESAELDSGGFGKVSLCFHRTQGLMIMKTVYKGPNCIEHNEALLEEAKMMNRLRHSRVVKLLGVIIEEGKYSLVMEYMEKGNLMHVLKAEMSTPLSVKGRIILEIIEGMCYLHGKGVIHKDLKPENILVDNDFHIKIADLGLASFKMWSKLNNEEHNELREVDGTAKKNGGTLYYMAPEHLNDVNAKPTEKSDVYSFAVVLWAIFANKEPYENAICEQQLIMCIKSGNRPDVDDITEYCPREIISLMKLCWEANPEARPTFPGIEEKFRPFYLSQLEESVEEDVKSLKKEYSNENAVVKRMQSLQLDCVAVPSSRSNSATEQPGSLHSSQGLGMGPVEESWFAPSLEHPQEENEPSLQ

As for `CC[C@@]1(C)OCc2cnc(C(=O)N[C@H]3COc4ccccc4N(C)C3=O)nc21` (mixture of isomers) [Example 682, (7R)-7-ethyl-7-methyl-N-[rac-(3S)-5-methyl-4-oxo-2,3-dihydro-1,5-benzoxazepin-3-yl]-5H-furo[3,4-d]pyrimidine-2-carboxamide], the Ki turned out to be 73.8 nM. With `CCC[C@]1(C)OCc2cnc(C(=O)N[C@H]3COc4ccccc4N(C)C3=O)nc21` (mixture of isomers) [Example 683, (7S)-7-methyl-7-propyl-N-[rac-(3S)-5-methyl-4-oxo-2,3-dihydro-1,5-benzoxazepin-3-yl]-5H-furo[3,4-d] pyrimidine-2-carboxamide] the figure was 10.9 nM; with `CN1C(=O)[C@@H](NC(=O)c2ncn(Cc3ccc(F)cc3)n2)CCn2nccc21` (racemic) [Example 339, 1-[(4-fluorophenyl)methyl]-N-[rac-(6S)-4-methyl-5-oxo-7,8-dihydro-6H-pyrazolo[1,5-a][1,3]diazepin-6-yl]-1,2,4-triazole-3-carboxamide], 28.2 nM; with `CN1C(=O)[C@@H](NC(=O)c2ncn(Cc3ccc(F)cc3F)n2)CCn2nccc21` (racemic) [Example 340, 1-[(2,4-difluorophenyl)methyl]-N-[rac-(6S)-4-methyl-5-oxo-7,8-dihydro-6H-pyrazolo[1,5-a][1,3]diazepin-6-yl]-1,2,4-triazole-3-carboxamide], 12.8 nM.

As for `CN1C(=O)[C@@H](NC(=O)c2ncn(Cc3ccc(F)c(F)c3)n2)CCn2nccc21` (racemic) [Example 341, 1-[(3,4-difluorophenyl)methyl]-N-[rac-(6S)-4-methyl-5-oxo-7,8-dihydro-6H-pyrazolo[1,5-a][1,3]diazepin-6-yl]-1,2,4-triazole-3-carboxamide], the Ki was determined as 17 nM. With `CN1C(=O)[C@@H](NC(=O)c2ncn(Cc3cccc(F)c3F)n2)CCn2nccc21` (racemic) [Example 342, 1-[(2,3-difluorophenyl)methyl]-N-[rac-(6S)-4-methyl-5-oxo-7,8-dihydro-6H-pyrazolo[1,5-a][1,3]diazepin-6-yl]-1,2,4-triazole-3-carboxamide] the figure was 10.9 nM. Under `C=C(C)c1cc2n(n1)CCC(NC(=O)c1ncn(Cc3ccccc3)n1)C(=O)N2C` (racemic) [Example 365, 1-benzyl-N-(2-isopropenyl-4-methyl-5-oxo-7,8-dihydro-6H-pyrazolo[1,5-a][1,3]diazepin-6-yl)-1,2,4-triazole-3-carboxamide] stands 31.1 nM. With `CN1C(=O)C(NC(=O)c2ncn(Cc3ccccc3)n2)CCn2nc(C(C)(F)F)cc21` (racemic) [Example 371, 1-benzyl-N-[2-(1,1-difluoroethyl)-4-methyl-5-oxo-7,8-dihydro-6H-pyrazolo[1,5-a][1,3]diazepin-6-yl]-1,2,4-triazole-3-carboxamide] the figure was 100 nM. On to `CN1C(=O)C(NC(=O)c2ncn(Cc3ccccc3)n2)CCn2nc(C(C)(C)O)cc21` (racemic) [Example 372, 1-benzyl-N-[2-(1-hydroxy-1-methyl-ethyl)-4-methyl-5-oxo-7,8-dihydro-6H-pyrazolo[1,5-a][1,3]diazepin-6-yl]-1,2,4-triazole-3-carboxamide], for which the Ki worked out at 488 nM. In the case of `CN1C(=O)[C@@H](NC(=O)c2nc3n(n2)[C@@H](c2ccccc2)CCC3)CCn2nccc21` (racemic) [Example 385, (R)—N—((S)-4-methyl-5-oxo-5,6,7,8-tetrahydro-4H-pyrazolo[1,5-a][1,3]diazepin-6-yl)-5-phenyl-5,6,7,8-tetrahydro-[1,2,4]triazolo[1,5-a]pyridine-2-carboxamide], the Ki came to 24.4 nM. Consider `CN1C(=O)[C@@H](NC(=O)c2nc3n(n2)[C@H](c2c(F)cccc2F)CCC3)CCn2nccc21` (racemic) [Example 400, (S)-5-(2,6-difluorophenyl)-N—((S)-4-methyl-5-oxo-5,6,7,8-tetrahydro-4H-pyrazolo[1,5-a][1,3]diazepin-6-yl)-5,6,7,8-tetrahydro-[1,2,4]triazolo[1,5-a]pyridine-2-carboxamide], for which the Ki turned out to be 834 nM. Under `CN1C(=O)[C@@H](NC(=O)c2nc3n(n2)[C@@H](c2c(F)cccc2F)CCC3)CCn2nccc21` (racemic) [Example 401, (R)-5-(2,6-difluorophenyl)-N—((S)-4-methyl-5-oxo-5,6,7,8-tetrahydro-4H-pyrazolo[1,5-a][1,3]diazepin-6-yl)-5,6,7,8-tetrahydro-[1,2,4]triazolo[1,5-a]pyridine-2-carboxamide] stands 87.9 nM; under `CC[C@@H]1CCCc2nc(C(=O)N[C@H]3COc4ccccc4N(C)C3=O)nn21` (racemic) [Example 402, (R)-5-ethyl-N—((S)-5-methyl-4-oxo-2,3,4,5-tetrahydrobenzo[b][1,4]oxazepin-3-yl)-5,6,7,8-tetrahydro-[1,2,4]triazolo[1,5-a]pyridine-2-carboxamide], 8.7 nM. With `CC[C@H]1CCCc2nc(C(=O)N[C@H]3COc4ccccc4N(C)C3=O)nn21` (racemic) [Example 403, (S)-5-ethyl-N—((S)-5-methyl-4-oxo-2,3,4,5-tetrahydrobenzo[b][1,4]oxazepin-3-yl)-5,6,7,8-tetrahydro-[1,2,4]triazolo[1,5-a]pyridine-2-carboxamide] the figure was 81.9 nM; with `CN1C(=O)[C@@H](NC(=O)c2nc3n(n2)[C@@H](c2cnn(C)c2)CCC3)COc2ccccc21` (racemic) [Example 407, (R)-5-(1-methyl-1H-pyrazol-4-yl)-N—((S)-5-methyl-4-oxo-2,3,4,5-tetrahydrobenzo[b][1,4]oxazepin-3-yl)-5,6,7,8-tetrahydro-[1,2,4]triazolo[1,5-a]pyridine-2-carboxamide], 54.9 nM. Under `CN1C(=O)[C@@H](NC(=O)c2nc3n(n2)[C@@H](C2CCOCC2)CCC3)COc2ccccc21` (racemic) [Example 409, (R)—N—((S)-5-methyl-4-oxo-2,3,4,5-tetrahydrobenzo[b][1,4]oxazepin-3-yl)-5-(tetrahydro-2H-pyran-4-yl)-5,6,7,8-tetrahydro-[1,2,4]triazolo[1,5-a]pyridine-2-carboxamide] stands 565 nM; under `CN1C(=O)[C@@H](NC(=O)c2nc3n(n2)[C@H](C2CCOCC2)CCC3)COc2ccccc21` (racemic) [Example 410, (S)—N—((S)-5-methyl-4-oxo-2,3,4,5-tetrahydrobenzo[b][1,4]oxazepin-3-yl)-5-(tetrahydro-2H-pyran-4-yl)-5,6,7,8-tetrahydro-[1,2,4]triazolo[1,5-a]pyridine-2-carboxamide], 121 nM; under `CN1C(=O)[C@@H](NC(=O)c2nc3n(n2)[C@H](c2cnn(C)c2)CCC3)COc2ccccc21` (racemic) [Example 411, (S)-5-(1-methyl-1H-pyrazol-4-yl)-N—((S)-5-methyl-4-oxo-2,3,4,5-tetrahydrobenzo[b][1,4]oxazepin-3-yl)-5,6,7,8-tetrahydro-[1,2,4]triazolo[1,5-a]pyridine-2-carboxamide], 6500 nM. For `CC(C)[C@@H]1CCCc2nc(C(=O)N[C@H]3COc4ccccc4N(C)C3=O)nn21` (racemic) [Example 414, (S)-5-isopropyl-N—((S)-5-methyl-4-oxo-2,3,4,5-tetrahydrobenzo[b][1,4]oxazepin-3-yl)-5,6,7,8-tetrahydro-[1,2,4]triazolo[1,5-a]pyridine-2-carboxamide], the Ki worked out at 13.6 nM. Take `CCC[C@H]1CCCc2nc(C(=O)N[C@H]3COc4ccccc4N(C)C3=O)nn21` (racemic) [Example 415, (S)—N—((S)-5-methyl-4-oxo-2,3,4,5-tetrahydrobenzo[b][1,4]oxazepin-3-yl)-5-propyl-5,6,7,8-tetrahydro-[1,2,4]triazolo[1,5-a]pyridine-2-carboxamide]: the Ki stood at 12.6 nM. Consider `CCC[C@@H]1CCCc2nc(C(=O)N[C@H]3COc4ccccc4N(C)C3=O)nn21` (racemic) [Example 416, (R)—N—((S)-5-methyl-4-oxo-2,3,4,5-tetrahydrobenzo[b][1,4]oxazepin-3-yl)-5-propyl-5,6,7,8-tetrahydro-[1,2,4]triazolo[1,5-a]pyridine-2-carboxamide], for which the Ki stood at 4.63 nM. On to `CN1C(=O)[C@@H](NC(=O)c2nc3n(n2)[C@H](C(F)(F)F)CCC3)COc2ccccc21` (racemic) [Example 426, (S)—N—((S)-5-methyl-4-oxo-2,3,4,5-tetrahydrobenzo[b][1,4]oxazepin-3-yl)-5-(trifluoromethyl)-5,6,7,8-tetrahydro-[1,2,4]triazolo[1,5-a]pyridine-2-carboxamide], for which the Ki is 13.7 nM.

In the case of `Cc1ncc2n1CCC(NC(=O)c1ncn(Cc3ccccc3)n1)C(=O)N2C` (racemic) [Example 557, 1-benzyl-N-(1,7-dimethyl-2-oxo-4,5-dihydro-3H-imidazo[1,5-a][1,3]diazepin-3-yl)-1,2,4-triazole-3-carboxamide], the Ki was found to be 130 nM. With `Cc1cc2n(n1)CC[C@H](NC(=O)c1nc3n(n1)CC[C@H]3c1ccccc1)C(=O)N2C` (racemic) [Example 575, (7S)-7-phenyl-N-[(6S)-2,4-dimethyl-5-oxo-7,8-dihydro-6H-pyrazolo[1,5-a][1,3]diazepin-6-yl]-6,7-dihydro-5H-pyrrolo[1,2-b][1,2,4]triazole-2-carboxamide] the figure was 28 nM.
